Test results as given in the NIST ThermoML archive (doi:10.1016/j.jct.2005.03.012).
Numbers after ± are expanded uncertainties.

Experiment: molar heat capacity at constant pressure
Conditions: Liquid, Flow calorimetry

CO [methanol]
molar heat capacity at constant pressure (248.15 K, 500 kPa): 74.02 ± 0.26 J/K/mol | molar heat capacity at constant pressure (248.15 K, 1000 kPa): 74.02 ± 0.26 J/K/mol | molar heat capacity at constant pressure (248.15 K, 2500 kPa): 73.95 ± 0.26 J/K/mol | molar heat capacity at constant pressure (248.15 K, 5000 kPa): 73.89 ± 0.26 J/K/mol | molar heat capacity at constant pressure (248.15 K, 7500 kPa): 73.79 ± 0.26 J/K/mol | molar heat capacity at constant pressure (248.15 K, 10000 kPa): 73.79 ± 0.26 J/K/mol | molar heat capacity at constant pressure (248.15 K, 12500 kPa): 73.76 ± 0.26 J/K/mol | molar heat capacity at constant pressure (273.15 K, 500 kPa): 77.03 ± 0.26 J/K/mol | molar heat capacity at constant pressure (273.15 K, 1000 kPa): 77 ± 0.26 J/K/mol | molar heat capacity at constant pressure (273.15 K, 2500 kPa): 76.93 ± 0.26 J/K/mol | molar heat capacity at constant pressure (273.15 K, 5000 kPa): 76.84 ± 0.26 J/K/mol | molar heat capacity at constant pressure (273.15 K, 7500 kPa): 76.8 ± 0.26 J/K/mol | molar heat capacity at constant pressure (273.15 K, 10000 kPa): 76.77 ± 0.26 J/K/mol | molar heat capacity at constant pressure (273.15 K, 12500 kPa): 76.74 ± 0.26 J/K/mol | molar heat capacity at constant pressure (298.15 K, 500 kPa): 81.39 ± 0.29 J/K/mol | molar heat capacity at constant pressure (298.15 K, 1000 kPa): 81.35 ± 0.29 J/K/mol | molar heat capacity at constant pressure (298.15 K, 2500 kPa): 81.19 ± 0.29 J/K/mol | molar heat capacity at constant pressure (298.15 K, 5000 kPa): 81.07 ± 0.29 J/K/mol | molar heat capacity at constant pressure (298.15 K, 7500 kPa): 81.03 ± 0.29 J/K/mol | molar heat capacity at constant pressure (298.15 K, 10000 kPa): 80.91 ± 0.26 J/K/mol | molar heat capacity at constant pressure (298.15 K, 12500 kPa): 80.91 ± 0.26 J/K/mol | molar heat capacity at constant pressure (323.15 K, 500 kPa): 86.87 ± 0.29 J/K/mol | molar heat capacity at constant pressure (323.15 K, 1000 kPa): 86.8 ± 0.29 J/K/mol | molar heat capacity at constant pressure (323.15 K, 2500 kPa): 86.64 ± 0.29 J/K/mol | molar heat capacity at constant pressure (323.15 K, 5000 kPa): 86.45 ± 0.29 J/K/mol | molar heat capacity at constant pressure (323.15 K, 7500 kPa): 86.29 ± 0.29 J/K/mol | molar heat capacity at constant pressure (323.15 K, 10000 kPa): 86.13 ± 0.29 J/K/mol | molar heat capacity at constant pressure (323.15 K, 12500 kPa): 86 ± 0.29 J/K/mol | molar heat capacity at constant pressure (348.15 K, 500 kPa): 93.66 ± 0.32 J/K/mol | molar heat capacity at constant pressure (348.15 K, 1000 kPa): 93.59 ± 0.32 J/K/mol | molar heat capacity at constant pressure (348.15 K, 2500 kPa): 93.43 ± 0.32 J/K/mol | molar heat capacity at constant pressure (348.15 K, 5000 kPa): 93.18 ± 0.32 J/K/mol | molar heat capacity at constant pressure (348.15 K, 7500 kPa): 92.92 ± 0.32 J/K/mol | molar heat capacity at constant pressure (348.15 K, 10000 kPa): 92.73 ± 0.32 J/K/mol | molar heat capacity at constant pressure (348.15 K, 12500 kPa): 92.41 ± 0.32 J/K/mol | molar heat capacity at constant pressure (373.15 K, 500 kPa): 101.83 ± 0.35 J/K/mol | molar heat capacity at constant pressure (373.15 K, 1000 kPa): 101.76 ± 0.35 J/K/mol | molar heat capacity at constant pressure (373.15 K, 2500 kPa): 101.41 ± 0.35 J/K/mol | molar heat capacity at constant pressure (373.15 K, 5000 kPa): 101 ± 0.35 J/K/mol | molar heat capacity at constant pressure (373.15 K, 7500 kPa): 100.64 ± 0.35 J/K/mol | molar heat capacity at constant pressure (373.15 K, 10000 kPa): 100.23 ± 0.32 J/K/mol | molar heat capacity at constant pressure (373.15 K, 12500 kPa): 99.97 ± 0.32 J/K/mol | molar heat capacity at constant pressure (398.15 K, 1000 kPa): 111.86 ± 0.38 J/K/mol | molar heat capacity at constant pressure (398.15 K, 2500 kPa): 111.28 ± 0.38 J/K/mol | molar heat capacity at constant pressure (398.15 K, 5000 kPa): 110.38 ± 0.38 J/K/mol | molar heat capacity at constant pressure (398.15 K, 7500 kPa): 109.58 ± 0.35 J/K/mol | molar heat capacity at constant pressure (398.15 K, 10000 kPa): 108.97 ± 0.35 J/K/mol | molar heat capacity at constant pressure (398.15 K, 12500 kPa): 108.33 ± 0.35 J/K/mol | molar heat capacity at constant pressure (423.15 K, 2500 kPa): 122.98 ± 0.42 J/K/mol | molar heat capacity at constant pressure (423.15 K, 5000 kPa): 121.41 ± 0.42 J/K/mol | molar heat capacity at constant pressure (423.15 K, 7500 kPa): 120.03 ± 0.42 J/K/mol | molar heat capacity at constant pressure (423.15 K, 10000 kPa): 118.84 ± 0.38 J/K/mol | molar heat capacity at constant pressure (423.15 K, 12500 kPa): 117.85 ± 0.38 J/K/mol | molar heat capacity at constant pressure (473.15 K, 5000 kPa): 162.32 ± 0.54 J/K/mol | molar heat capacity at constant pressure (473.15 K, 7500 kPa): 152.94 ± 0.51 J/K/mol | molar heat capacity at constant pressure (473.15 K, 10000 kPa): 146.91 ± 0.48 J/K/mol | molar heat capacity at constant pressure (473.15 K, 12500 kPa): 142.75 ± 0.48 J/K/mol
